Patent publication US20080221074A1, “Drug Screen and Treatment Method” (priority 2006, published 2008)

Columns and labels:
[1] = tested on: insulin sensitivity in db/db diabetic mice; test: hyperinsulinemic-euglycemic clamp; type: in vivo; conditions: ^14C-2-deoxyglucose; p<0.05
Method: Glucose lowering in 8 week old db/db diabetic mice. The hyperinsulinemic-euglycemic clamp protocol was conducted to measure insulin sensitivity in vivo. In this procedure, insulin was administered to raise the insulin concentration while glucose was infused to maintain euglycemia or a fixed, normal blood glucose level (about 180 mg/dL). […] The objective of this protocol was to investigate characterize the capacity of 17α-ethynylandrost-5-ene-3β,7β,17β-triol and androst-5-ene-3β,7β,16α,17β-tetrol to ameliorate systemic insulin resistance and improve whole body glucose disposal in the hyperinsulinemic-euglycemic clamp model. The degree of skeletal muscle and hepatic insulin sensitivity and tissue specific glucose uptake were also assessed. The animals were dosed daily by oral gavage for 14 days. On Day 10 of treatment catheters were implanted in the carotid artery and jugular vein. On the day of the clamp (day 14) the compound was administered at 7:30 am.
Body weight and glucose concentration were assessed on day 0, 7 and day 14 of treatment. On day 14 a euglycemic hyperinsulinemic clamp was performed. Food was removed at 7:30 am at 10:30 a primed continuous infusion of [3-^3H]-glucose (0.05 μCi/min). A baseline blood sample was taken at 12:50 (−10 min) and at 1:00 (0 min) a euglycemic hyperinsulinemic clamp was initiated by administering 10 mU /kg/min of insulin. Glucose was infused at a variable rate to clamp the glucose concentration at ˜180 mg/dl. A bolus of [^14C]-2deoxyglucose was given at the end of the study to assess tissue specific glucose uptake. Plasma ^14C 2-deoxyglucose was assessed at 122, 125, 130, 135, 145 min. […]
Analysis was conducted as follows. Plasma samples were deproteinized with Ba(OH)2 (0.3 N) and ZnSO4 (0.3 N), dried and radioactivity was assessed on scintillation counter (Packard TRICARB 2900 TR, Meriden, Conn.). […] One supernatant was directly counted to determine radioactivity from both [14C] […] A second aliquot was treated with Ba(OH)2 and ZnSO4 to remove ^14C DGP and any tracer incorporated into glycogen and then counted to determine radioactivity from free [^14C]DG(2). [^14C]DGP was calculated as the difference between the two aliquots. […] Rg, an index of tissue specific glucose uptake was calculated as previously described (E.W. Kraegen et al., Am. J. Physiol., 248:E353-E362, 1985). Whole body glucose turnover was calculated as the ratio of the ^3H glucose infusion rate (dpm/kg/min) and arterial plasma glucose specific activity (dpm/mg). Endogenous glucose production was calculated as the difference between the whole body glucose turnover and the exogenous glucose infusion rate (R. N. Bergman et al., Endocr. Rev., 6:45-86, 1985).

[2] = tested on: ionizing radiation exposure; test: survival after lethal total body irradiation (10 Gy); type: in vivo, female B6D2F1 mice
Method: Treatment of ionizing radiation exposure. The effect of selected F1Cs on survival of lethally-irradiated female B6D2F1 mice were compared to control animals treated with vehicle alone. […] For Group 4, test article was administered as a 50 μL volume, by intramuscular injection for three consecutive days. The formulation was a a suspension containing 0.1% w/v carboxymethyl-cellulose, 0.9% w/v sodium chloride and 0.05% v/v phenol. The formulations were agitated to uniformly resuspend the Fl C before syringing, and injected into animals within a few minutes of drawing into the syringe to prevent settling in the syringe.
The groups of animals were treated as follows. […] The number of surviving animals is shown for day 6, 7, 12 and 21.

[3] = tested on: NF-κB; test: inhibition of NF-κB activation in NF-κB-bla THP-1 cells after LPS stimulation; type: cell-based, human; conditions: Homo sapiens, THP-1
Description: Inhibition of NF-κB in vitro. […] Activation of NF-κB increases expression of a number of genes that mediate inflammation. This protocol used human THP-1 cells, which are human mononuclear blood cells with a monocyte phenotype. The cell line, referred to as NF-κB-bla THP-1, contained a β-lactamase reporter gene under the control of the NF-kB response element (Invitrogen, CellSensor™, product No. K1176). In this cell line, the β-lactamase reporter gene is stably integrated in the THP-1 cells. This cell line was used to detect agonists or antagonists of the NF-κB signaling pathway. These NF-κB-bla THP-1 cells respond to the presence of tumor necrosis factor alpha (TNFα) or bacterial lipopolysaccharide (LPS) by increased expression of the β-lactamase reporter gene. The level of β-lactamase enzyme activity was measured by fluorescence resonance energy transfer ratiometric detection. TNFα and LPS are both potent inflammation-inducing agents that activate NF-κB in THP1 cells. In this assay, compounds that decrease NF-κB activity, and thus β-lactamase, in the presence of TNFα or LPS are exerting an anti-inflammation activity.
The NF-κB-bla THP-1 cells were maintained by passaging or feeding as needed. […] The cells were plated at 20,000 cells/well in a 384-well Black-wall, clear bottom assay plates (Costar#3712-TC low fluorescence background plates) approximately 24 hours before adding either TNFα at 10 ng/mL or LPS at 0.2 ng/mL to activate NF-κB.
The assays were usually conducted 2-4 times for each compound and the values shown below are averages for each compound.

[4] = tested on: progressive ischemia after thermal injury of the ear; test: thermal injury model using mouse ear tissue; type: in vivo, Balb/c mice; conditions: injection in propylene glycol after burn
Method: A thermal injury model using mouse ear tissue was used to characterize compounds for their capacity to treat inflammation associated with thermal trauma. […] Groups of Balb/c mice, approximately nine weeks old were given an identifying mark and then divided into control and treated subgroups. The thickness of the ear to be immersed in hot water was recorded, and then the entire ear of the anesthetized mouse was dipped into 52° C. water for 24 seconds. Each mouse was returned to its cage after an injection of either the propylene glycol vehicle (control) or 100 mg of compound in propylene glycol. Ear swelling changes were monitored on individual mice at pre-burn, and at various times after thermal injury. Ear swelling changes were monitored on individual mice at pre-injury and at 1, 3, 6, 9,12, 18, 24 and 48 hours after thermal injury. Animals were treated with 100 mg of dehydroepiandrosterone (DHEA) dissolved in propylene glycol.

[5] = tested on: EAE; test: experimental allergic encephalomyelitis (EAE), PLP 139-151; type: in vivo, female SJL/J mice; conditions: 5 mg/kg daily oral gavage; through day 26
Description: Treatment of autoimmune neurodegeneration. Three compounds, 17β-aminoandrost-5-ene-3β-ol, 17β-dimethylaminoandrost-5-ene-3β-ol and 17β-methylaminoandrost-5-ene-3β-ol were characterized for their capacity to ameliorate experimental allergic encephalomyelitis (EAE) in mice. This demyelinating condition is extensively used as a model for multiple sclerosis in humans and for testing of new therapies for treating multiple sclerosis, e.g., B. F. Bebo Jr. et al., J. Neurosci. Res. 52:420-426 1998; R. R. Voskuhl et al., Neuroscientist, 7:258-270 2001; H. Offner et al., J. Neuroimmunol., 130:128-139 2002.
In this protocol, the compounds were administered to female SJL/J mice by oral gavage at the onset of disease symptoms. An antigen was used to initiate the EAE condition in the mice. […] Immunization with this peptide antigen initiates an autoimmune Thl mediated demyelinating disease of the central nervous system. The antigen was prepared by solid phase synthesis and purified by high-performance liquid chromatography. […] The immunization protocol was subcutaneous injection over four sites on the hind flank on day 0. After immunization. the mice were assessed daily for clinical signs of EAE using the following scale: 0=no clinical signs or symptoms; 1=limp tail; 2=mild hind limb weakness and limp tail; 3=moderate hind limb weakness and limp tail or mild ataxia; 4=severe hind limb weakness and mild forearm weakness with moderate ataxia; 5=paraplegia with no more than moderate forelimb weakness; 6=paraplegia with severe forelimb weakness or severe ataxia or moribund condition.
Mice in the vehicle control group began to show observable symptoms of EAE at about 10-11 days after immunization with the PLP antigen, which is typical for the EAE disease model. The animals were dosed daily with 17β-aminoandrost-5-ene-3β-ol, 17β-dimethylaminoandrost-5-ene-3β-ol or 17β-methylaminoandrost-5-ene-3β-ol by oral gavage beginning at day 1, which was 1 day after immunization.

[6] = tested on: human T lymphocytes (PBMC); test: human mixed lymphocyte reaction (MLR); type: cell-based; conditions: 300 nM or 30 nM
Description: Human mixed lymphocyte reaction (MLR). The capacity of 3β,16α-dihydroxy-17-oxoandrostane, 3β,17β-dihydroxy-16-oxoandrostane, 17α-ethynylandrost-5-ene-3β,7β,17β-triol, and 17β-aminoandrost-5-ene-3β-ol to affect antigen specific stimulation in which human T lymphocytes respond to a specific foreign antigen (major histocompatibility complex).
Blood samples were obtained from 3 (2 males, […]) fasting, healthy human volunteers of 23-31 years old. […] The subjects were bled between 9 and 10 AM to limit possible fluctuations in the circulating levels of hormones or cytokines that could have influenced the in vitro responses of their lymphocytes. Peripheral blood mononuclear cells (PBMC) were isolated by centrifugation on Ficoll-Hypaque (density 1.077, Biochrom AG, Berlin, Germany) gradients and resuspended in culture medium (RPMI 1640 supplemented with 2 mM L-glutamine, penicillin (100 U/mL) and streptomycin ([…]) (Invitrogen s.rl., Milan, Italy). Autologous (responder) inactivated plasma was used at 10%. Five hundred thousand responder PBMC (PBMCr) and 500,000 allogeneic irradiated (30 Gy) stimulator PBMC (PBMCs) were mixed at a ratio of 1:1 in 200 μL medium and cultured for 6 days in flat bottom 96 well plates (Nunc, Roskilde, Denmark) at a concentration of 300 nM or 30 nM for each of the 4 compounds. The compounds were dissolved in ethanol and then diluted to the desired concentration with culture medium leading to a final solution containing 0.01% of ethanol. This vehicle was used as control. Controls also included PBMCr and PBMCs cultured separately. During the last 8 hours of the culture period the PBMC were pulsed with […] [^3H] thymidine (Amersham, Milan, Italy). The cells were then harvested and radioactivity incorporation measured with a beta cell counter. The mean cpm of quadruplicate wells was calculated. Proliferation of T cells was expressed as a stimulation index: SI=cpm (PMBCs xPBMCr)/cpm (PBMCr)+cpm (PBMCs). Statistical analysis was performed using the Student's t test. The cpm obtained from quadruplicate of each test compound were compared to proliferative responses obtained in control PBMCr and PBMCs cultured in the presence of the vehicle. Differences were considered significant at p<0.05.

CN(CCOc1ccc(CC2SC(=O)NC2=O)cc1)c1ccccn1.O=C(O)/C=C\C(=O)O (stereo not drawn) [rosiglitazone, rosiglitazone maleate, reference compound]
glucose uptake in the gastrocnemius muscle [1]: more effective

C[C@]12CC[C@H]3[C@@H](CC=C4C[C@@H](O)CC[C@@]43C)[C@@H]1CC[C@@H]2O [androst-5-ene-3β,17β-diol]
number of surviving animals (groups of 12) ([2]; 0.6 mg i.m. daily for 3 days, day 6): 12 | number of surviving animals (groups of 12) ([2]; 0.6 mg i.m. daily for 3 days, day 7): 12 | number of surviving animals (groups of 12) ([2]; 0.6 mg i.m. daily for 3 days, day 12): 11 | number of surviving animals (groups of 12) ([2]; 0.6 mg i.m. daily for 3 days, day 21): 9 | number of surviving animals (groups of 12) ([2]; 0.6 mg s.c. daily for 3 days, day 6): 12 | number of surviving animals (groups of 12) ([2]; 0.6 mg s.c. daily for 3 days, day 7): 11 | number of surviving animals (groups of 12) ([2]; 0.6 mg s.c. daily for 3 days, day 12): 10 | number of surviving animals (groups of 12) ([2]; 0.6 mg s.c. daily for 3 days, day 21): 7 | number of surviving animals (groups of 12) ([2]; 3.0 mg s.c. daily for 3 days, day 6): 12 | number of surviving animals (groups of 12) ([2]; 3.0 mg s.c. daily for 3 days, day 7): 12 | number of surviving animals (groups of 12) ([2]; 3.0 mg s.c. daily for 3 days, day 12): 9 | number of surviving animals (groups of 12) ([2]; 3.0 mg s.c. daily for 3 days, day 21): 7 | IC50 [3]: 0.014 nM | protection against progressive ischemia after thermal injury to the ear [4]: protected treated animals against much of the ischemic consequences

C[C@]12CC[C@H](O)CC1=CC[C@@H]1[C@@H]2CC[C@]2(C)C(=O)[C@H](Cl)C[C@@H]12 [16α-chlorodehydroepiandrosterone]
protection against progressive ischemia after thermal injury to the ear [4]: only slightly protective

CN(C)[C@H]1CC[C@H]2[C@@H]3CC=C4C[C@@H](O)CC[C@]4(C)[C@H]3CC[C@]12C [17β-dimethylaminoandrost-5-ene-3β-ol]
clinical severity of EAE symptoms [5]: reduced the clinical severity

C[C@]12CC[C@H](O)CC1=CC[C@@H]1[C@@H]2CC[C@]2(C)C(=O)[C@H](Br)C[C@@H]12 [16α-bromodehydroepiandrosterone]
protection against progressive ischemia after thermal injury to the ear [4]: protected treated animals against much of the ischemic consequences

C[C@]12CC[C@H]3[C@@H](CCC4C[C@@H](O)CC[C@@]43C)[C@@H]1CC(=O)[C@@H]2O (stereo partly drawn) [3β,17β-dihydroxy-16-oxoandrostane]
immune suppression (inhibition of the MLR) [6]: not appreciably immune suppressive

C[C@]12CC[C@H](O)CC1=CC[C@@H]1[C@@H]2CC[C@]2(C)C(=O)[C@H](O)C[C@@H]12 [16α-hydroxydehydroepiandrosterone]
protection against progressive ischemia after thermal injury to the ear [4]: less protective

CN[C@H]1CC[C@H]2[C@@H]3CC=C4C[C@@H](O)CC[C@]4(C)[C@H]3CC[C@]12C [17β-methylaminoandrost-5-ene-3β-ol]
clinical severity of EAE symptoms [5]: reduced the clinical severity
